Laboratory results from PubChem BioAssay AID212 (DTP/NCI, 2004).
Values joined by “and” are separate entries in the source; they are usually repeats but may differ in a detail not shown here. Identical values can stand only once. Records with an inconclusive call do not appear.

Test system: BDF1 mice, colon carcinoma 38 sc, T/C %
Assay: NCI In Vivo Anticancer Drug Screen. Data for tumor model Colon Carcinoma 38 (subcutaneous) in B6D2F1 (BDF1) mice
Conditions: endpoint: median tumor weight (est.), higher = larger tumour
Procedure, shortened: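 Compound antitumor activity was assessed in mice carrying transplantable tumors. Survival or tumor size was recorded, and each value is the treated-group measurement divided by that of the vehicle-treated control group.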

[1] = dose: 25.0 mg/kg/injection, schedule: Q07DX002 (ip), vehicle: Klucel (hydroxypropylcellulose) (HPC)
[2] = dose: 50.0 mg/kg/injection, schedule: Q07DX002 (ip), vehicle: Klucel (hydroxypropylcellulose) (HPC)
[3] = dose: 100.0 mg/kg/injection, schedule: Q07DX002 (ip), vehicle: Klucel (hydroxypropylcellulose) (HPC)
[4] = dose: 200.0 mg/kg/injection, schedule: Q07DX002 (ip), vehicle: Klucel (hydroxypropylcellulose) (HPC)
[5] = dose: 400.0 mg/kg/injection, schedule: Q07DX002 (ip), vehicle: Klucel (hydroxypropylcellulose) (HPC)
[6] = dose: 800.0 mg/kg/injection, schedule: Q07DX002 (ip), vehicle: Klucel (hydroxypropylcellulose) (HPC)
[7] = dose: 3.12 mg/kg/injection, schedule: Q07DX002 (ip), vehicle: saline with Tween-80
[8] = dose: 50.0 mg/kg/injection, schedule: Q07DX002 (ip), vehicle: saline with Tween-80
[9] = dose: 25.0 mg/kg/injection, schedule: Q07DX002 (ip), vehicle: saline
[10] = dose: 50.0 mg/kg/injection, schedule: Q07DX002 (ip), vehicle: saline
[11] = dose: 100.0 mg/kg/injection, schedule: Q07DX002 (ip), vehicle: saline
[12] = dose: 200.0 mg/kg/injection, schedule: Q07DX002 (ip), vehicle: saline
[13] = dose: 400.0 mg/kg/injection, schedule: Q07DX002 (ip), vehicle: saline

Nc1ccc2nc3ccc(N)cc3[n+](-c3ccccc3)c2c1
T/C (dose: 2.0 mg/kg/injection, schedule: Q07DX002 (ip), vehicle: saline): 95 % of control | T/C (dose: 4.0 mg/kg/injection, schedule: Q07DX002 (ip), vehicle: saline): 74 % of control | T/C (dose: 4.0 mg/kg/injection, schedule: Q07DX003 (ip), vehicle: saline): 28 % of control | T/C (dose: 8.0 mg/kg/injection, schedule: Q07DX002 (ip), vehicle: saline): 96 % of control | T/C (dose: 8.0 mg/kg/injection, schedule: Q07DX003 (ip), vehicle: saline): 43 % of control | T/C (dose: 16.0 mg/kg/injection, schedule: Q07DX002 (ip), vehicle: saline): 72 % of control | T/C (dose: 16.0 mg/kg/injection, schedule: Q07DX003 (ip), vehicle: saline): 46 % of control | T/C (dose: 32.0 mg/kg/injection, schedule: Q07DX002 (ip), vehicle: saline): 97 % of control | T/C (dose: 32.0 mg/kg/injection, schedule: Q07DX003 (ip), vehicle: saline): 43 % of control

COc1cccc2c1C(=O)c1c(O)c3c(c(O)c1C2=O)C[C@@](O)(C(=O)CO)C[C@@H]3OC1CC(N)CC(C)O1 (stereo partly drawn)
T/C (dose: 0.75 mg/kg/injection, schedule: Q07DX002 (ip), vehicle: water): 93 % of control | T/C (dose: 1.5 mg/kg/injection, schedule: Q07DX002 (ip), vehicle: water): 110 % of control | T/C (dose: 3.0 mg/kg/injection, schedule: Q07DX002 (ip), vehicle: water): 25 % of control

COc1ccc2ccccc2c1C1NC(=O)c2ccccc2N1 (stereo not drawn)
T/C [1]: 76 % of control | T/C [2]: 93 % of control | T/C [3]: 59 % of control | T/C [4]: 52 % of control | T/C [5]: 69 % of control | T/C [6]: 69 % of control

CC(C)CCC[C@@H](C)[C@H]1CC[C@H]2[C@@H]3CC=C4C[C@@H](OC(=O)Cc5ccc(N(CCCl)CCCl)cc5)CC[C@]4(C)[C@H]3CC[C@]12C
T/C [1]: 85 % of control | T/C [2]: 111 % of control | T/C [3]: 103 % of control | T/C [4]: 103 % of control | T/C [5]: 77 % of control | T/C [6]: 82 % of control

CN(C)c1nc(N(C)C)nc(N(C)C)n1
T/C (dose: 12.5 mg/kg/injection, schedule: Q07DX003 (ip), vehicle: saline with Tween-80): 68 % of control | T/C (dose: 25.0 mg/kg/injection, schedule: Q07DX003 (ip), vehicle: saline with Tween-80): 91 % of control | T/C (dose: 50.0 mg/kg/injection, schedule: Q07DX003 (ip), vehicle: saline with Tween-80): 112 % of control | T/C (dose: 100.0 mg/kg/injection, schedule: Q07DX003 (ip), vehicle: saline with Tween-80): 66 % of control | T/C (dose: 200.0 mg/kg/injection, schedule: Q07DX003 (ip), vehicle: saline with Tween-80): 65 % of control

Oc1c(Cl)cc(Cl)cc1C1N2CCCCC2C2c3cccn3-c3ccccc3N21 (stereo not drawn)
T/C [1]: 82 % of control | T/C [2]: 102 % of control | T/C [3]: 69 % of control | T/C [4]: 104 % of control | T/C [5]: 67 % of control

CC1CN1C(=O)NCCCCCCNC(=O)N1CC1C (stereo not drawn)
T/C (dose: 5.0 mg/kg/injection, schedule: Q07DX003 (ip), vehicle: Klucel (hydroxypropylcellulose) (HPC)): 73 % of control and 90 % of control | T/C (dose: 20.0 mg/kg/injection, schedule: Q07DX003 (ip), vehicle: Klucel (hydroxypropylcellulose) (HPC)): 15 % of control and 34 % of control | T/C (dose: 40.0 mg/kg/injection, schedule: Q07DX003 (ip), vehicle: Klucel (hydroxypropylcellulose) (HPC)): 34 % of control

O=c1s[se]c2ccccc12
T/C [7]: 73 % of control | T/C (dose: 12.5 mg/kg/injection, schedule: Q07DX002 (ip), vehicle: saline with Tween-80): 90 % of control | T/C (dose: 25.0 mg/kg/injection, schedule: Q07DX002 (ip), vehicle: saline with Tween-80): 83 % of control | T/C [8]: 117 % of control

C1OC1CO[C@@H]1CO[C@H]2[C@@H]1OC[C@H]2OCC1CO1 (stereo partly drawn)
T/C (dose: 12.5 mg/kg/injection, schedule: Q07DX003 (ip), vehicle: saline): 47 % of control | T/C (dose: 25.0 mg/kg/injection, schedule: Q07DX002 (ip), vehicle: suspension in saline): 116 % of control | T/C (dose: 25.0 mg/kg/injection, schedule: Q07DX003 (ip), vehicle: saline): 82 % of control | T/C (dose: 50.0 mg/kg/injection, schedule: Q07DX002 (ip), vehicle: suspension in saline): 117 % of control | T/C (dose: 50.0 mg/kg/injection, schedule: Q07DX003 (ip), vehicle: saline): 83 % of control | T/C (dose: 100.0 mg/kg/injection, schedule: Q07DX002 (ip), vehicle: suspension in saline): 79 % of control | T/C (dose: 200.0 mg/kg/injection, schedule: Q07DX002 (ip), vehicle: suspension in saline): 98 % of control | T/C (dose: 200.0 mg/kg/injection, schedule: Q07DX003 (ip), vehicle: saline): 79 % of control and 94 % of control | T/C (dose: 400.0 mg/kg/injection, schedule: Q07DX002 (ip), vehicle: suspension in saline): 70 % of control

C1CCC2[N-]CC3CCCCC3[N-]CC3CCCCC3[N-]CC3CCCCC3[N-]CC2C1.[Cu] (stereo not drawn)
T/C (dose: 1.56 mg/kg/injection, schedule: Q07DX002 (ip), vehicle: Klucel (hydroxypropylcellulose) (HPC)): 93 % of control | T/C (dose: 1.56 mg/kg/injection, schedule: Q07DX003 (ip), vehicle: Klucel (hydroxypropylcellulose) (HPC)): 97 % of control | T/C (dose: 3.13 mg/kg/injection, schedule: Q07DX002 (ip), vehicle: Klucel (hydroxypropylcellulose) (HPC)): 81 % of control | T/C (dose: 6.25 mg/kg/injection, schedule: Q07DX002 (ip), vehicle: Klucel (hydroxypropylcellulose) (HPC)): 91 % of control | T/C (dose: 6.25 mg/kg/injection, schedule: Q07DX003 (ip), vehicle: Klucel (hydroxypropylcellulose) (HPC)): 100 % of control | T/C (dose: 12.5 mg/kg/injection, schedule: Q07DX002 (ip), vehicle: Klucel (hydroxypropylcellulose) (HPC)): 97 % of control | T/C (dose: 12.5 mg/kg/injection, schedule: Q07DX003 (ip), vehicle: Klucel (hydroxypropylcellulose) (HPC)): 95 % of control

C[CH2][Pb]([CH2]C)([CH2]C)[O]C(=O)COc1ccccc1
T/C (dose: 0.75 mg/kg/injection, schedule: Q07DX002 (ip), vehicle: Klucel (hydroxypropylcellulose) (HPC)): 166 % of control | T/C (dose: 3.0 mg/kg/injection, schedule: Q07DX002 (ip), vehicle: Klucel (hydroxypropylcellulose) (HPC)): 151 % of control | T/C (dose: 6.0 mg/kg/injection, schedule: Q07DX002 (ip), vehicle: Klucel (hydroxypropylcellulose) (HPC)): 118 % of control | T/C (dose: 12.0 mg/kg/injection, schedule: Q07DX002 (ip), vehicle: Klucel (hydroxypropylcellulose) (HPC)): 176 % of control

BrC[P+](CBr)(CBr)CBr
T/C [7]: 48 % of control | T/C (dose: 6.25 mg/kg/injection, schedule: Q07DX002 (ip), vehicle: saline with Tween-80): 73 % of control | T/C [8]: 82 % of control | T/C (dose: 100.0 mg/kg/injection, schedule: Q07DX002 (ip), vehicle: saline with Tween-80): 75 % of control and 77 % of control

CCC(C(=O)O)C(=O)O.[NH-]CC1CCCC[N-]1.[Pt+2]
T/C [9]: 305 % of control | T/C [10]: 404 % of control | T/C [11]: 209 % of control | T/C [12]: 239 % of control

COC(=O)c1ccoc1
T/C [9]: 105 % of control | T/C [10]: 94 % of control | T/C [12]: 118 % of control | T/C [13]: 112 % of control

COP12(OCCO1)SC(C(F)(F)F)=C(C(F)(F)F)S2
T/C (dose: 0.75 mg/kg/injection, schedule: Q07DX002 (ip), vehicle: saline with Tween-80): 81 % of control | T/C (dose: 1.5 mg/kg/injection, schedule: Q07DX002 (ip), vehicle: saline with Tween-80): 92 % of control | T/C (dose: 3.0 mg/kg/injection, schedule: Q07DX002 (ip), vehicle: saline with Tween-80): 84 % of control | T/C (dose: 6.0 mg/kg/injection, schedule: Q07DX002 (ip), vehicle: saline with Tween-80): 83 % of control | T/C (dose: 12.0 mg/kg/injection, schedule: Q07DX002 (ip), vehicle: saline with Tween-80): 75 % of control

c1csc(C[N+]23CN4CN(CN(C4)C2)C3)c1
T/C [9]: 77 % of control | T/C [10]: 108 % of control | T/C [11]: 81 % of control | T/C [12]: 97 % of control | T/C [13]: 112 % of control
